According to publication PMC3689638, “Cell cycle-dependent activity of the novel dual PI3K-MTORC1/2 inhibitor NVP-BGT226 in acute leukemia” (Molecular Cancer, 2013):
Like-named read-outs stand apart in the source and are kept apart here.

Legend:
[1] = test system: mononuclear cells of a bone marrow donor; assay: XTT-based proliferation assay, donor mononuclear cells ex vivo
Description: Bone marrow aspirate and peripheral blood samples from consented patients with acute leukemia as well as samples from healthy blood and bone marrow donors were collected in 5000 U heparin with the approval of the ethics committee of the Medical Faculties of the University of Tübingen or the University of Ulm. Mononuclear cells were isolated by Ficoll-Hypaque density gradient fractionation. Cells were cultured in DMEM medium, supplemented with 20% fetal bovine serum (GIBCO/Invitrogen, Darmstadt, Germany or Biochrom AG, Berlin, Germany), 1% penicillin G (10,000 units/mL), and streptomycin (10,000 μg/mg) and 2 mmol/L L-glutamine.

Ba/F3 KIT WT [2] = assay: Inhibition of proliferation (XTT), isogenic Ba/F3 model; type: cell-based, murine; conditions: Mus musculus
Description: (§1) FLT3 S451F cDNA cloned into a pCMVneo plasmid vector [53] was generously provided by Dr. Fröhling, University of Ulm, Germany. KIT wildtype cDNA cloned into a pJP1563 plasmid vector was obtained from the DNASU Plasmid Repository at the Biodesign Institute of the Arizona State University (ASU). Lipofection transfection into the parental Ba/F3 cell line was performed to stably express KIT wildtype or mutant FLT3 S451F by double selection for neomycin (pCMVneo plasmid), blasticidin (pJP1563 plasmid) or […] (G418; all other plasmids) resistance and IL-3-independent growth. The Ba/F3 KIT wildtype cell line was cultured using recombinant human stem cell factor (SCF/KIT Ligand, R&D, Minneapolis, MN) as a growth supplement.

Ba/F3 KIT D816V = assay: as above; type: cell-based, murine; conditions: Mus musculus
MOLM14 cells (FLT3 ITD) = assay: annexin V-based apoptosis assay, MOLM14; type: cell-based; conditions: Homo sapiens, MOLM-14, read-out: IC50 induction of apoptosis
Description: (§2) Translocation of phosphatidylserine from the inner to the outer leaflet of the plasma membrane as an early indicator of apoptosis was analyzed using an Annexin V-based assay (Immunotech, Marseilles, France) and a FACScalibur® flow cytometer loaded with CellQuest® analysis software (BD, Heidelberg, Germany).

Ba/F3 BCR/ABL1 = assay: Inhibition of proliferation (XTT), isogenic Ba/F3 model; type: cell-based, murine; conditions: Mus musculus
Ba/F3 FLT3 ITD = assay: Induction of apoptosis, isogenic Ba/F3 model; type: cell-based, murine
Description: as §2

Ba/F3 FLT3 N841H = assay: Induction of apoptosis, isogenic Ba/F3 model; type: cell-based, murine
Description: as §2

Ba/F3 FLT3 WT = assay: Induction of apoptosis, isogenic Ba/F3 model; type: cell-based, murine
Description: as §2

Ba/F3 FLT3 D835Y = assay: Induction of apoptosis, isogenic Ba/F3 model; type: cell-based, murine
Description: as §2

Ba/F3 KIT D816Y [3] = assay: Induction of apoptosis, isogenic Ba/F3 model; type: cell-based, murine
Description: as §2

Ba/F3 Parental (w/ IL3) = assay: Induction of apoptosis, isogenic Ba/F3 model; type: cell-based, murine
Description: as §2

Ba/F3 KIT D816F = assay: Induction of apoptosis, isogenic Ba/F3 model; type: cell-based, murine
Description: as §2

[4] = test system: native mononuclear cells derived from bone marrow donors; assay: Annexin V/PI apoptosis assay, donor mononuclear cells ex vivo; type: cell-based, human
Description: However, this observation will need prospective verification on a larger patient cohort.
as §2

native leukemia blasts = assay: Annexin V/PI apoptosis assay, native leukemia blasts treated ex vivo; type: cell-based; conditions: Homo sapiens
Description: as §2

Ba/F3 FLT3 K663Q = assay: Inhibition of proliferation (XTT), isogenic Ba/F3 model; type: cell-based, murine; conditions: Mus musculus
K562 cells (BCR-ABL1) = assay: annexin V-based apoptosis assay, K562; type: cell-based; conditions: Homo sapiens, read-out: IC50 induction of apoptosis
Description: as §2

Ba/F3 KIT WT [5] = assay: Induction of apoptosis, isogenic Ba/F3 model; type: cell-based, murine
Description: as §1, §2

Ba/F3 FLT3 S451F = assay: Induction of apoptosis, isogenic Ba/F3 model; type: cell-based, murine
Description: as §1, §2

[6] = test system: HMC1.1, HMC1.2, GIST882 and GIST48 cells; assay: induction of apoptosis in imatinib-resistance cell models; type: cell-based, human; conditions: HMC1.1/HMC1.2 and GIST882/GIST48; irrespective of the sensitivity profile towards TKI
Description: We tested this theory using two cell models comparing primary TK-sensitive mutations with secondary TK-insensitive mutations: The first model consists of a mast cell leukemia cell line (HMC1.1), which harbors an imatinib-sensitive KIT V560G mutation – and a derivative sister cell line (HMC1.2), which is characterized by a secondary activation loop KIT D816V mutation, rendering the cells insensitive towards imatinib. Additionally we tested the GIST solid tumor cell line GIST882 (harboring an imatinib-sensitive KIT K642E mutation) with a second cell line, which was established from a patient with relapsing GIST under imatinib therapy (GIST48). This cell line harbors a primary homozygous juxtamembrane KIT mutation (V560D) plus a secondary heterozygous imatinib-insensitive activation loop mutation (D820A).
Supplementary file 1476-4598-12-46-S3.tiff: Additional file 3: Figure S2 PI3K/MTOR inhibition in imatinib-resistance models. Dual PI3K/MTOR inhibition is effective in tyrosine kinase inhibitor-resistant cell models. […] Dose-effect plots are provided indicating sensitivity profiles of both dual PI3K/MTOR inhibitors that are independent of the sensitivity patterns for imatinib. Linear regression analyses to calculate IC50 estimates are provided for all cell lines. […]

Ba/F3 KIT D816Y [7] = assay: Inhibition of proliferation (XTT), isogenic Ba/F3 model; type: cell-based, murine; conditions: Mus musculus
[8] = BaF3, 10 nM, read-out: Inhibition of proliferation At 10 nM (% alive)
[9] = BaF3, 100 nM, read-out: Inhibition of proliferation At 100 nM (% alive)

Cn1c(=O)n(-c2ccc(C(C)(C)C#N)cc2)c2c3cc(-c4cnc5ccccc5c4)ccc3ncc21 [NVP-BEZ235]
IC50 ([1]; Homo sapiens, read-out: Proliferation IC50, Pt. Nr. 552 (donor), bone marrow donor, ex vivo): > 1000 nM
IC50 ([1]; read-out: Proliferation IC50, Pt. Nr. 552 (donor), bone marrow donor, ex vivo): 1020 nM
IC50 (Ba/F3 KIT WT [2]; BaF3): 6 nM
viability at 0.01 µM (Ba/F3 KIT WT [2]; [8]): 12%
viability at 0.1 µM (Ba/F3 KIT WT [2]; [9]): 11%
IC50 (Ba/F3 KIT D816V; BaF3): 8 nM
viability at 0.01 µM (Ba/F3 KIT D816V; [8]): 40%
viability at 0.1 µM (Ba/F3 KIT D816V; [9]): 38%
IC50 (MOLM14 cells (FLT3 ITD)): > 10000 nM
IC50 (Ba/F3 BCR/ABL1; BaF3): 131 nM
viability at 0.01 µM (Ba/F3 BCR/ABL1; [8]): 58%
viability at 0.1 µM (Ba/F3 BCR/ABL1; [9]): 50%
Induction of apoptosis At 1000 nM (% apopt.) (Ba/F3 FLT3 ITD; 1000 nM): 19%
Induction of apoptosis At 5000 nM (% apopt.) (Ba/F3 FLT3 ITD; 5000 nM): 27%
IC50 (Ba/F3 FLT3 ITD; Mus musculus, not reached = > 5 000 nM): > 10000 nM
Induction of apoptosis At 1000 nM (% apopt.) (Ba/F3 FLT3 N841H; 1000 nM): 19%
Induction of apoptosis At 5000 nM (% apopt.) (Ba/F3 FLT3 N841H; 5000 nM): 22%
Induction of apoptosis IC50 (Ba/F3 FLT3 N841H; not reached = > 5 000 nM): Not reached
Induction of apoptosis At 1000 nM (% apopt.) (Ba/F3 FLT3 WT; 1000 nM): 38%
Induction of apoptosis At 5000 nM (% apopt.) (Ba/F3 FLT3 WT; 5000 nM): 40%
IC50 (Ba/F3 FLT3 WT; Mus musculus, BaF3): 8300 nM
Induction of apoptosis At 1000 nM (% apopt.) (Ba/F3 FLT3 D835Y; 1000 nM): 19%
Induction of apoptosis At 5000 nM (% apopt.) (Ba/F3 FLT3 D835Y; 5000 nM): 28%
Induction of apoptosis IC50 (Ba/F3 FLT3 D835Y; not reached = > 5 000 nM): Not reached
Induction of apoptosis At 1000 nM (% apopt.) (Ba/F3 KIT D816Y [3]; 1000 nM): 5%
Induction of apoptosis At 5000 nM (% apopt.) (Ba/F3 KIT D816Y [3]; 5000 nM): 73%
IC50 (Ba/F3 KIT D816Y [3]; Mus musculus, BaF3): 1360 nM
Induction of apoptosis At 1000 nM (% apopt.) (Ba/F3 Parental (w/ IL3); 1000 nM): 3%
Induction of apoptosis At 5000 nM (% apopt.) (Ba/F3 Parental (w/ IL3); 5000 nM): 6%
Induction of apoptosis IC50 (Ba/F3 Parental (w/ IL3); not reached = > 5 000 nM): Not reached*
Induction of apoptosis At 1000 nM (% apopt.) (Ba/F3 KIT D816F; 1000 nM): 40%
Induction of apoptosis At 5000 nM (% apopt.) (Ba/F3 KIT D816F; 5000 nM): 87%
IC50 (Ba/F3 KIT D816F; Mus musculus, BaF3): 1240 nM
Apoptosis IC50 ([4]; Pt. Nr. 538 (donor)): Not reached
Apoptosis IC50 ([4]; Pt. Nr. 554 (donor)): Not reached
IC50 (native leukemia blasts; Pt. Nr. 290, ex vivo): 71 nM
IC50 (native leukemia blasts; Pt. Nr. 368, ex vivo): 3180 nM
IC50 (native leukemia blasts; Pt. Nr. 527, ex vivo): 6820 nM
IC50 (native leukemia blasts; Pt. Nr. 528, ex vivo): 371 nM
IC50 (native leukemia blasts; Pt. Nr. 532, ex vivo): 653 nM
IC50 (Ba/F3 FLT3 K663Q; BaF3): 91 nM
viability at 0.01 µM (Ba/F3 FLT3 K663Q; [8]): 57%
viability at 0.1 µM (Ba/F3 FLT3 K663Q; [9]): 51%
IC50 (K562 cells (BCR-ABL1)): > 10000 nM
Induction of apoptosis At 1000 nM (% apopt.) (Ba/F3 KIT WT [5]; 1000 nM): 32%
Induction of apoptosis At 5000 nM (% apopt.) (Ba/F3 KIT WT [5]; 5000 nM): 85%
IC50 (Ba/F3 KIT WT [5]; Mus musculus, BaF3): 1400 nM
Induction of apoptosis At 1000 nM (% apopt.) (Ba/F3 FLT3 S451F; 1000 nM): 49%
Induction of apoptosis At 5000 nM (% apopt.) (Ba/F3 FLT3 S451F; 5000 nM): 70%
IC50 (Ba/F3 FLT3 S451F; Mus musculus, BaF3): 741 nM
induction of apoptosis [6]: potently induced apoptosis
IC50 (Ba/F3 KIT D816Y [7]; BaF3): 72 nM
viability at 0.01 µM (Ba/F3 KIT D816Y [7]; [8]): 64%
viability at 0.1 µM (Ba/F3 KIT D816Y [7]; [9]): 62%
